Results on 27 compounds are retold here after patent US8658646B2, “Pyrrolopyrazine kinase inhibitors” (Hoffmann-LaRoche Inc., priority 2011, dated 2014).

T1 sequence (P52333 822-1111 limits assumed): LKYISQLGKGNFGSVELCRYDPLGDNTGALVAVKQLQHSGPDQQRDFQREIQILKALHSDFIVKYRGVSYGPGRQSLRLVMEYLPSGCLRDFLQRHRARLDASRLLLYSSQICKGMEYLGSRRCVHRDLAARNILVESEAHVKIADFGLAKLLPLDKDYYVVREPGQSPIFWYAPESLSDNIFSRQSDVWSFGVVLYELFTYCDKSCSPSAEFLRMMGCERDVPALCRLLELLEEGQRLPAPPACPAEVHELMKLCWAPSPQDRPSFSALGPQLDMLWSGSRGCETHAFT

The assay addresses T1, JAK3: Recombinant human kinase domain (Homo sapiens, UniProt P52333).
T1 construct: JAK3: Recombinant human kinase domain from Millipore (Cat #14-629) or prepared; purchased Millipore 14-629
In words: Determination of IC50 of Janus Kinase (JAK) inhibition, radioactive end-point 33P-ATP assay, JAK3. Format: biochemical. Conditions: ATP 1.5 uM, peptide 50 uM, 20 minutes, read-out: JAK3-INHIB-DR/v1~NO ADDITIVE~Enzyme_Conc = 100.
For `C[C@@H](NC(=O)c1c[nH]c2ncc(-c3nn(C)c4cc(Cl)ccc34)nc12)C1CC1` [Example I-16, 2-(6-Chloro-1-methyl-1H-indazol-3-yl)-5H-pyrrolo[2,3-b]pyrazine-7-carboxylic acid ((R)-1-cyclopropyl-ethyl)-amide], the IC50 was determined as 4.81 nM.

With `C[C@@H](NC(=O)c1c[nH]c2ncc(-c3nn(C)c4cc(C(F)(F)F)ccc34)nc12)C(=O)N1CC(C#N)C1` [Example I-18, 2-(1-Methyl-6-trifluoromethyl-1H-indazol-3-yl)-5H-pyrrolo[2,3-b]pyrazine-7-carboxylic acid [(R)-2-(3-cyano-azetidin-1-yl)-1-methyl-2-oxo-ethyl]-amide], the IC50 came out at 1.15 nM.

In the case of `Cn1nc(-c2cnc3[nH]cc(C(=O)N[C@@H](C(=O)N4CCC(C#N)CC4)C(C)(C)C)c3n2)c2ccc(Cl)cc21` [Example I-19, 2-(6-Chloro-1-methyl-1H-indazol-3-yl)-5H-pyrrolo[2,3-b]pyrazine-7-carboxylic acid [(R)-1-(4-cyano-piperidine-1-carbonyl)-2,2-dimethyl-propyl]-amide], the IC50 is 2.12 nM.

`C[C@@H](NC(=O)c1c[nH]c2ncc(-c3n[nH]c4cc(Cl)ccc34)nc12)C(=O)N1CC(C#N)C1` [Example I-23, 2-(6-Chloro-1H-indazol-3-yl)-5H-pyrrolo[2,3-b]pyrazine-7-carboxylic acid [(R)-2-(3-cyano-azetidin-1-yl)-1-methyl-2-oxo-ethyl]-amide]: the IC50 was determined as 0.59 nM.

Take `COCCn1nc(-c2cnc3[nH]cc(C(=O)N[C@H](C)C(=O)N4CC(C#N)C4)c3n2)c2ccc(Cl)cc21` [Example I-24, 2-[6-Chloro-1-(2-methoxy-ethyl)-1H-indazol-3-yl]-5H-pyrrolo[2,3-b]pyrazine-7-carboxylic acid [(R)-2-(3-cyano-azetidin-1-yl)-1-methyl-2-oxo-ethyl]-amide]: the IC50 stood at 2.34 nM.

`C[C@@H](NC(=O)c1c[nH]c2ncc(-c3nn(C)c4c3CCCC4)nc12)C(=O)N1CC(C#N)C1` [Example I-26, 2-(1-Methyl-4,5,6,7-tetrahydro-1H-indazol-3-yl)-5H-pyrrolo[2,3-b]pyrazine-7-carboxylic acid [(R)-2-(3-cyano-azetidin-1-yl)-1-methyl-2-oxo-ethyl]-amide]: the IC50 turned out to be 5.7 nM.

In the case of `C[C@@H](NC(=O)c1c[nH]c2ncc(-c3nn(C)c4cc(Cl)ccc34)nc12)C(=O)N1CC2(COC2)C1` [Example I-27, 2-(6-Chloro-1-methyl-1H-indazol-3-yl)-5H-pyrrolo[2,3-b]pyrazine-7-carboxylic acid [(R)-1-methyl-2-(2-oxa-6-aza-spiro[3.3]hept-6-yl)-2-oxo-ethyl]-amide], the IC50 turned out to be 20.5 nM.

With `C[C@@H](NC(=O)c1c[nH]c2ncc(-c3nn(C)c4cc(Cl)ccc34)nc12)C(=O)N1CCOCC1` [Example I-28, 2-(6-Chloro-1-methyl-1H-indazol-3-yl)-5H-pyrrolo[2,3-b]pyrazine-7-carboxylic acid ((R)-1-methyl-2-morpholin-4-yl-2-oxo-ethyl)-amide], the IC50 was found to be 84.6 nM.

For `C[C@@H](NC(=O)c1c[nH]c2ncc(-c3nn(C)c4cc(Cl)c(F)cc34)nc12)C(=O)N1CC(C#N)C1` [Example I-30, 2-(6-Chloro-5-fluoro-1-methyl-1H-indazol-3-yl)-5H-pyrrolo[2,3-b]pyrazine-7-carboxylic acid [(R)-2-(3-cyano-azetidin-1-yl)-1-methyl-2-oxo-ethyl]-amide], the IC50 turned out to be 1.45 nM.

Consider `Cc1nc(-c2cnc3[nH]cc(C(=O)N[C@H](C)C(=O)N4CC(C#N)C4)c3n2)c2ccc(F)cn12` [Example I-34, 2-(6-Fluoro-3-methyl-imidazo[1,5-a]pyridin-1-yl)-5H-pyrrolo[2,3-b]pyrazine-7-carboxylic acid [(R)-2-(3-cyano-azetidin-1-yl)-1-methyl-2-oxo-ethyl]-amide], for which the IC50 turned out to be 1.27 nM.

Take `C[C@@H](NC(=O)c1c[nH]c2ncc(-c3nc(CO)n4cc(F)ccc34)nc12)C(=O)N1CC(C#N)C1` [Example I-35, 2-(6-Fluoro-3-hydroxymethyl-imidazo[1,5-a]pyridin-1-yl)-5H-pyrrolo[2,3-b]pyradine-7-carboxylic acid [(R)-2-(3-cyano-azetidin-1-yl)-1-methyl-2-oxo-ethyl]-amide]: the IC50 came to 0.33 nM.

For the compound `COC[C@H](C)NC(=O)c1c[nH]c2ncc(-c3ncn4cc(F)ccc34)nc12` [Example I-41, 2-(6-Fluoro-imidazo[1,5-a]pyridin-1-yl)-5H-pyrrolo[2,3-b]pyrazine-7-carboxylic acid ((S)-2-methoxy-1-methyl-ethyl)-amide], the IC50 came to 0.375 nM.

On to `C[C@@H](NC(=O)c1c[nH]c2ncc(-c3nc(S(C)(=O)=O)n4cc(F)ccc34)nc12)C(=O)N1CC(C#N)C1` [Example I-42, 2-(6-Fluoro-3-methanesulfonyl-imidazo[1,5-a]pyridin-1-yl)-5H-pyrrolo[2,3-b]pyrazine-7-carboxylic acid [(R)-2-(3-cyano-azetidin-1-yl)-1-methyl-2-oxo-ethyl]-amide], for which the IC50 turned out to be 1.25 nM.

Consider `CC(NC(=O)c1c[nH]c2ncc(-c3nn(C)c4cc(F)ccc34)nc12)c1ncco1` (stereo not drawn) [Example I-49, 2-(6-Fluoro-1-methyl-1H-indazol-3-yl)-5H-pyrrolo[2,3-b]pyrazine-7-carboxylic acid (1-oxazol-2-yl-ethyl)-amide], for which the IC50 stood at 5.66 nM.

Turning to `C[C@@H](NC(=O)c1c[nH]c2ncc(-c3nn(C)c4cc(F)ccc34)nc12)c1ncco1` [Example I-50, 2-(6-Fluoro-1-methyl-1H-indazol-3-yl)-5H-pyrrolo[2,3-b]pyrazine-7-carboxylic acid ((R)-1-oxazol-2-yl-ethyl)-amide], the IC50 is 2.63 nM.

`C[C@H](NC(=O)c1c[nH]c2ncc(-c3nn(C)c4cc(F)ccc34)nc12)c1ncco1` [Example I-51, 2-(6-Fluoro-1-methyl-1H-indazol-3-yl)-5H-pyrrolo[2,3-b]pyrazine-7-carboxylic acid ((S)-1-oxazol-2-yl-ethyl)-amide]: the IC50 came out at 9.11 nM.

As to `CC(NC(=O)c1c[nH]c2ncc(-c3nn(C)c4cc(F)ccc34)nc12)c1ccon1` (stereo not drawn) [Example I-53, 2-(6-Fluoro-1-methyl-1H-indazol-3-yl)-5H-pyrrolo[2,3-b]pyrazine-7-carboxylic acid (1-isoxazol-3-yl-ethyl)-amide], the IC50 was found to be 7.07 nM.

For the compound `C[C@@H](NC(=O)c1c[nH]c2ncc(-c3ncn4cc(F)ccc34)nc12)c1ncco1` [Example I-58, 2-(6-Fluoro-imidazo[1,5-a]pyridin-1-yl)-5H-pyrrolo[2,3-b]pyrazine-7-carboxylic acid ((R)-1-oxazol-2-yl-ethyl)-amide], the IC50 is 2.31 nM.

`CCC[C@@H](NC(=O)c1c[nH]c2ncc(-c3nn(C)c4cc(F)ccc34)nc12)C(=O)N1CC(F)C1` [Example I-59, 2-(6-Fluoro-1-methyl-1H-indazol-3-yl)-5H-pyrrolo[2,3-b]pyrazine-7-carboxylic acid [(R)-1-(3-fluoro-azetidine-1-carbonyl)-butyl]-amide]: the IC50 was found to be 3.19 nM.

For `C[C@@H](NC(=O)c1c[nH]c2ncc(-c3nn(C)c4cc(F)ccc34)nc12)C(F)(F)Cc1ccccc1` [Example I-61, 2-(6-Fluoro-1-methyl-1H-indazol-3-yl)-5H-pyrrolo[2,3-b]pyrazine-7-carboxylic acid ((R)-2,2-difluoro-1-methyl-3-phenyl-propyl)-amide], the IC50 turned out to be 16.8 nM.

For the compound `C[C@@H](NC(=O)c1c[nH]c2ncc(-c3nn(C)c4cc(F)ccc34)nc12)c1nc(CC#N)co1` [Example I-62, 2-(6-Fluoro-1-methyl-1H-indazol-3-yl)-5H-pyrrolo[2,3-b]pyrazine-7-carboxylic acid [(R)-1-(4-cyanomethyl-oxazol-2-yl)-ethyl]-amide], the IC50 came out at 15.1 nM.

In the case of `C[C@@H](NC(=O)c1c[nH]c2ncc(-c3nn(C)c4cc(F)ccc34)nc12)[C@@H]1CCCO1` [Example I-63, 2-(6-Fluoro-1-methyl-1H-indazol-3-yl)-5H-pyrrolo[2,3-b]pyrazine-7-carboxylic acid [(R)-(S)-1-(tetrahydro-furan-2-yl)-ethyl]-amide], the IC50 stood at 6.67 nM.

`C[C@@H](NC(=O)c1c[nH]c2ncc(-c3nn(C)c4cc(F)ccc34)nc12)[C@H]1CCCO1` [Example I-64, 2-(6-Fluoro-1-methyl-1H-indazol-3-yl)-5H-pyrrolo[2,3-b]pyrazine-7-carboxylic acid [(R)-(R)-1-(tetrahydro-furan-2-yl)-ethyl]-amide]: the IC50 is 13.3 nM.

Take `N#CC1CCN(C(=O)[C@H](NC(=O)c2c[nH]c3ncc(-n4ncc5cc(Cl)ccc54)nc23)C2CC2)CC1` [Example I-66, 2-(5-Chloro-indazol-1-yl)-5H-pyrrolo[2,3-b]pyrazine-7-carboxylic acid [(R)-2-(4-cyano-piperidin-1-yl)-1-cyclopropyl-2-oxo-ethyl]-amide]: the IC50 is 2.17 nM.

For `Cn1nc(-c2cnc3[nH]cc(C(=O)N[C@@H](C(=O)N4CCC(C#N)CC4)C4CC4)c3n2)c2cc(Cl)c(Cl)cc21` [Example I-67, 2-(5,6-Dichloro-1-methyl-1H-indazol-3-yl)-5H-pyrrolo[2,3-b]pyrazine-7-carboxylic acid [(R)-2-(4-cyano-piperidin-1-yl)-1-cyclopropyl-2-oxo-ethyl]-amide], the IC50 is 0.48 nM.

With `N#CC1CCN(C(=O)[C@H](NC(=O)c2c[nH]c3ncc(-n4ncc5cc(Cl)c(Cl)cc54)nc23)C2CC2)CC1` [Example I-68, 2-(5,6-Dichloro-indazol-1-yl)-5H-pyrrolo[2,3-b]pyrazine-7-carboxylic acid [(R)-2-(4-cyano-piperidin-1-yl)-1-cyclopropyl-2-oxo-ethyl]-amide], the IC50 was found to be 5.75 nM.

As to `C[C@@H](NC(=O)c1c[nH]c2ncc(-c3nn(C)c4c3CCC(C)(C)C4)nc12)C(=O)N1CC(C#N)C1` [Example I-70, 2-(1,6,6-Trimethyl-4,5,6,7-tetrahydro-1H-indazol-3-yl)-5H-pyrrolo[2,3-b]pyrazine-7-carboxylic acid [(R)-2-(3-cyano-azetidin-1-yl)-1-methyl-2-oxo-ethyl]-amide], the IC50 worked out at 29.8 nM.
